Results taken from patent US8859562B2, “Use of RNAI inhibiting PARP activity for the manufacture of a medicament for the treatment of cancer” (The University of Sheffield, priority 2003, dated 2014).

How the values were obtained:
V79 hamster cells = assay: PAR polymer staining (sites of PARP activity); assay type: cell-based; conditions: V79 cells treated for 24 hours; FIG. 7C
Protocol: (§1) Cells were plated onto coverslips 4 h prior to 24-h treatments as indicated. Following treatments the medium was removed and coverslips rinsed once in PBS at 37° C. and fixed as described elsewhere. The primary antibodies and dilutions used in this study were; rabbit polyclonal anti PAR (Trevigen; 1:500), goat polyclonal anti Rad51 (C-20, Santa Cruz; 1:200) and rabbit polyclonal anti Rad51 (H-92, Santa Cruz; 1:1000). The secondary antibodies were Cy-3-conjugated goat anti-rabbit IgG antibody (Zymed; 1:500), Alexa 555 goat anti-rabbit F(ab′)2IgG antibody (Molecular Probes; 1:500), Alexa 546 donkey anti-goat IgG antibody (Molecular Probes; 1:500) and Alexa 488 donkey anti-rabbit IgG antibody (Molecular Probes; 1:500). Antibodies were diluted in PBS containing 3% bovine serum albumin. DNA was stained with 1 μg/ml To Pro (Molecular Probes). Images were obtained with a Zeiss LSM 510 inverted confocal microscope using planapochromat 63X/NA 1.4 oil immersion objective and excitation wavelengths 488, 546 and 630 nm. Through focus maximum projection images were acquired from optical sections 0.50 μm apart and with a section thickness of 1.0 μm. Images were processed using Adobe PhotoShop (Abacus Inc). At least 300 nuclei were counted on each slide and those containing more than 10 RAD51 foci or sites of PARP activity were classified as positive.

PARP = PARP activity assay by level of free NAD(P)H (WST-8); assay type: cell-based; conditions: FIG. 7F; hydroxyurea 0.5 mM, thymidine 10 mM
Protocol: A water-soluble tetrazolium salt (5 mM WST-8) was used to monitor the amount of NAD(P)H through its reduction to a yellow coloured formazan dye[43]. 5000 cells were plated in at least triplicate into wells of a 96 well plate and cultured in 100 μl normal growth media for 4 h at 37° C. CK8 buffer (Dojindo Molecular Technology, Gaithersburg, USA), containing WST-8, was then added either with or without treatment with DNA damaging agents at concentrations indicated. Reduction of WST-8 in the presence of NAD(P)H was determined by measuring visible absorbance (OD450) every 30 min. A medium blank was also prepared containing just media and CK8 buffer. Changes in NAD(P)H levels were calculated by comparing the absorbance of wells containing cells treated with DNA damaging agents and those treated with DMSO alone. Alternately relative levels of NAD(P)H in different cells lines were calculated after 4 h incubation in CK8 buffer.

[1] = test system: irs1SF cells (XRCC3 deficient, deficient in HR); assay: Colony outgrowth assay, irs1SF cells; assay type: cell-based, Chinese hamster; conditions: defective in XRCC3, FIG. 1
Protocol: (§2) 500 cells suspended in medium were plated onto a Petri dish 4 hours prior to the addition of 3-AB, ISQ or NU1025. ISQ and NU1025 were dissolved in DMSO to a final concentration of 0.2% in treatment medium. 7-12 days later, when colonies could be observed, these colonies were fixed and stained with methylene blue in methanol (4 g/l). Colonies consisting of more than 50 cells were subsequently counted.

[2] = test system: irs1 cells (XRCC2 deficient, deficient in HR); assay: Colony outgrowth assay, irs1 cells; assay type: cell-based, Chinese hamster; conditions: irs1, defective in XRCC2; FIG. 1
Protocol: as §2

[3] = test system: CXR3 cells (irs1SF complemented with XRCC3); assay: Colony outgrowth assay, CXR3 cells; assay type: cell-based, Chinese hamster; conditions: CXR3 versus irs1SF; FIG. 1
Protocol: as §2

[4] = test system: irs1X2.2 cells (irs1 complemented with XRCC2); assay: Colony outgrowth assay, irs1X2.2 cells; assay type: cell-based, Chinese hamster; conditions: irs1X2.2 versus irs1; FIG. 1
Protocol: as §2

[5] = test system: BRCA2 deficient cells (VC8); assay: Colony outgrowth assay, VC8 cells; assay type: cell-based, Chinese hamster
Protocol: as §2

[6] = test system: VC8#13 cells (functional BRCA2 gene on chromosome 13); assay: Colony outgrowth assay, VC8#13 cells; assay type: cell-based, Chinese hamster; conditions: BRCA2 on chromosome 13 (VC8#13); FIG. 2
Protocol: as §2

[7] = test system: VC8+B2 cells (functional BRCA2 gene on overexpression vector); assay: Colony outgrowth assay, VC8+B2 cells; assay type: cell-based, Chinese hamster; conditions: FIG. 2
Protocol: as §2

VC8 cells = assay: Apoptosis experiments (annexin-V/PI flow cytometry); assay type: cell-based, Chinese hamster; conditions: 72 hours following exposure; FIG. 3
Protocol: 0.25×10^6 cells were plated onto Petri dishes and grown for 4 hours before treatment with NU1025. After 72 hours, cells were trypsinized and resuspended with medium containing any floating cells from that sample. The cells were pelleted by centrifugation and resuspended for apoptosis analysis with FITC-conjugated annexin-V and propidium iodine (PI) (ApoTarget, Biosource International) according to manufacturer's protocol. Samples were analysed by flow cytometry (Becton-Dickenson FACSort, 488 nm laser), and percentage of apoptotic cells was determined by the fraction of live cells (PI-negative) bound with FITC-conjugated annexin-V.

[8] = test system: MCF7 (wild-type p53) breast cancer cells depleted of BRCA2; assay: Colony outgrowth of siRNA-treated MCF-7 cells; assay type: cell-based; conditions: MCF7, BRCA2 depleted with a mixture of BRCA2 siRNA; FIG. 4
Protocol: as §2
Predesigned BRCA2 SMARTpool and scrambled siRNAs were purchased (Dharmacon, Lafayette, Colo.). 10000 cells seeded onto 6 well plates and left over night before transfected with 100 nM siRNA using Oligofectamine Reagent (Invitrogen) according to manufacturers instructions. Cells were then cultured in normal growth media for 48 h prior to trypsinisation and replating for toxicity assays. Suppression of BRCA2 was confirmed by Western blotting (as described previously) of protein extracts treated with siRNA with an antibody against BRCA2 (Oncogene, Nottingham, UK).

[9] = test system: MDA-MB-231 (mutated p53) breast cancer cells depleted of BRCA2; assay: Colony outgrowth of siRNA-treated MDA-MB-231 cells; assay type: cell-based; conditions: MDA-MB-231, BRCA2 depleted with a mixture of BRCA2 siRNA; FIG. 4
Protocol: 500 cells suspended in medium were plated onto a Petri dish 4 hours prior to the addition of 3-AB, ISQ or NU1025. ISQ and NU1025 were dissolved in DMSO to a final concentration of 0.2% in treatment medium. 7-12 days later, when colonies could be observed, these colonies were fixed and stained with methylene blue in methanol (4 g/l). Colonies consisting of more than 50 cells were subsequently counted. Predesigned BRCA2 SMARTpool and scrambled siRNAs were purchased (Dharmacon, Lafayette, Colo.). 10000 cells seeded onto 6 well plates and left over night before transfected with 100 nM siRNA using Oligofectamine Reagent (Invitrogen) according to manufacturers instructions. Cells were then cultured in normal growth media for 48 h prior to trypsinisation and replating for toxicity assays. Suppression of BRCA2 was confirmed by Western blotting (as described previously) of protein extracts treated with siRNA with an antibody against BRCA2 (Oncogene, Nottingham, UK).

V79 cells = assay: Pulse-field gel electrophoresis for DSBs, V79 cells; assay type: cell-based, Chinese hamster; conditions: highly toxic levels of NU1025 (0.1 mM, 24-hour), FIG. 5A
Protocol: (§3) 1.5×10^6 cells were plated onto 100 mm dishes and allowed 4 h for attachment. […] These inserts were incubated as described elsewhere (8) and separated by pulse-field gel electrophoresis for 24 h (BioRad; 120° angle, 60 to 240 s switch time, 4 V/cm). The gel was subsequently stained with ethidium bromide for analysis.

V-C8 cells = assay: Pulse-field gel electrophoresis for DSBs, V-C8 cells; assay type: cell-based, Chinese hamster; conditions: highly toxic levels of NU1025 (0.1 mM, 24-hour), FIG. 5A
Protocol: as §3

V-C8+B2 cells [10] = assay: RAD51 foci immunofluorescence, V-C8+B2 cells; assay type: cell-based, Chinese hamster; conditions: 24-hour treatment, 10 μM, t-test p<0.05, FIG. 5D
Protocol: as §1

[11] = test system: BRCA2 deficient V-C8 cells; assay: RAD51 foci immunofluorescence, V-C8 cells; assay type: cell-based, Chinese hamster; conditions: 24-hour treatment, 10 μM, FIG. 5D
Protocol: as §1

V-C8+B2 cells [12] = assay: Survival on co-treatment with replication inhibitors and NU1025; assay type: cell-based, Chinese hamster; conditions: co-treatment with NU1025 (10 μM)
Protocol: as §2

Compound	number of cells containing sites of PARP activity (V79 hamster cells)	activation of PARP and reduction of NAD(P)H levels (PARP)	sensitivity to the toxic effect (survival) [1]	sensitivity to the toxic effect (survival) [2]	sensitivity after introduction of functional XRCC3 gene [3]	sensitivity after introduction of functional XRCC2 gene [4]	other results
Cc1cn([C@H]2C[C@H](O)[C@@H](CO)O2)c(=O)[nH]c1=O [thymidine]	substantial increase	much slower					
Cc1nc2c(O)cccc2c(=O)[nH]1 [NU1025, 8-hydroxy-2-methylquinazolin-4-[3H]one]			very sensitive	very sensitive	corrected	corrected	sensitivity to cytotoxicity relative to wild type cells ([5]; BRCA2 deficient cells versus wild type cells): 100 times; sensitivity to the toxic effect (survival) ([5]; VC8 versus wild type V79Z, FIG. 2): very sensitive; sensitivity after introduction of functional BRCA2 gene [6]: corrected; sensitivity after introduction of functional BRCA2 gene [7]: corrected; level of apoptosis (VC8 cells): triggered apoptosis only in VC8 cells; survival [8]: profoundly reduced the survival; survival [9]: profoundly reduced the survival; accumulation of DSBs (V79 cells): no DSBs were detectable; accumulation of DSBs (V-C8 cells): no DSBs were detectable; formation of RAD51 foci (V-C8+B2 cells [10]): RAD51 foci were indeed induced; formation of RAD51 foci [11]: unable to form RAD51 foci; sensitivity to hydroxyurea (V-C8+B2 cells [12]; FIG. 7D): enhances the sensitivity; sensitivity to thymidine (V-C8+B2 cells [12]; FIG. 7E): enhances the sensitivity
NC(=O)c1cccc(N)c1 [3-AB, 3-aminobenzamide]			very sensitive	very sensitive	corrected	corrected	
COS(C)(=O)=O [MMS, Methylmethane sulphonate]		depletes the NAD(P)H levels					
Oc1cccc2c(O)nccc12 [ISQ, 1,5-dihydroxyisoquinoline]			very sensitive	very sensitive	corrected	corrected	
NC(=O)NO [hydroxyurea]	substantial increase	much slower					
